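Briefly, cells in 96-well plates were exposed to five compound concentrations for 48 h, and endpoints were estimated by linear interpolation. TGI marks complete inhibition of growth.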
How the values were obtained:
Experiment in all cases: DTP human tumour cell line panel, 48 h
[1] = tested on: 786-0 renal
[2] = tested on: A498 renal
[3] = tested on: A549 NSCLC
[4] = tested on: ACHN renal
[5] = tested on: CAKI-1 renal
[6] = tested on: CCRF-CEM leukemia
[7] = tested on: COLO 205 colon
[8] = tested on: DLD-1 colon
[9] = tested on: DMS 114 small cell lung
[10] = tested on: DMS 273 small cell lung
[11] = tested on: EKVX NSCLC
[12] = tested on: HCC-2998 colon
[13] = tested on: HCT-116 colon
[14] = tested on: HCT-15 colon
[15] = tested on: HL-60(TB) leukemia
[16] = tested on: HOP-18 NSCLC
[17] = tested on: HOP-62 NSCLC
[18] = tested on: HOP-92 NSCLC
[19] = tested on: HT29 colon
[20] = tested on: IGROV1 ovarian
[21] = tested on: K-562 leukemia
[22] = tested on: KM12 colon
[23] = tested on: KM20L2 colon
[24] = tested on: LOX IMVI melanoma
[25] = tested on: LXFL 529 NSCLC
[26] = tested on: M14 melanoma
[27] = tested on: M19-MEL melanoma
[28] = tested on: MALME-3M melanoma
[29] = tested on: MOLT-4 leukemia
[30] = tested on: NCI-H226 lung
[31] = tested on: NCI-H23 lung
[32] = tested on: NCI-H460 lung
[33] = tested on: NCI-H522 lung
[34] = tested on: OVCAR-3 ovarian
[35] = tested on: OVCAR-4 ovarian
[36] = tested on: OVCAR-5 ovarian
[37] = tested on: OVCAR-8 ovarian
[38] = tested on: RPMI-8226 leukemia
[39] = tested on: RXF 393 renal
[40] = tested on: SF-268 CNS
[41] = tested on: SF-295 CNS
[42] = tested on: SF-539 CNS
[43] = tested on: SK-MEL-2 melanoma
[44] = tested on: SK-MEL-28 melanoma
[45] = tested on: SK-MEL-5 melanoma
[46] = tested on: SK-OV-3 ovarian
[47] = tested on: SN12C renal
[48] = tested on: SNB-19 CNS
[49] = tested on: SNB-75 CNS
[50] = tested on: SNB-78 CNS
[51] = tested on: SR leukemia
[52] = tested on: SW-620 colon
[53] = tested on: TK-10 renal
[54] = tested on: U251 CNS
[55] = tested on: UACC-257 melanoma
[56] = tested on: UACC-62 melanoma
[57] = tested on: UO-31 renal
[58] = tested on: XF 498 CNS
[59] = tested on: RXF-631 renal

## CCC12C=CCN3CC[C@]4(C(=C(C(=O)OC)[C@@H]1Nc1ncnc5c1ncn5C1OC(COC(C)=O)C(OC(C)=O)C1OC(C)=O)Nc1ccccc14)C32 (some centres undefined)
[1]
  TGI: 4.01 µM
[2]
  TGI: 4.56 µM
[3]
  TGI: 13.2 µM
[4]
  TGI: 5.69 µM
[5]
  TGI: 12.6 µM
[6]
  TGI: 6.81 µM
[7]
  TGI: 3.48 µM
[8]
  TGI: 6.22 µM
[9]
  TGI: 4.27 µM
[10]
  TGI: 7.17 µM
[11]
  TGI: 16.2 µM
[12]
  TGI: 4.56 µM
[13]
  TGI: 5.55 µM
[14]
  TGI: 7.79 µM
[15]
  TGI: 7.39 µM
[16]
  TGI: 19.5 µM
[17]
  TGI: 5.83 µM
[18]
  TGI: 9.02 µM
[19]
  TGI: 4.88 µM
[20]
  TGI: 7.31 µM
[21]
  TGI: 17 µM
[22]
  TGI: 5.51 µM
[23]
  TGI: 6.94 µM
[24]
  TGI: 3.25 µM
[25]
  TGI: 5.42 µM
[26]
  TGI: 7.03 µM
[27]
  TGI: 5.93 µM
[28]
  TGI: 15.1 µM
[29]
  TGI: 25.3 µM
[30]
  TGI: 5.22 µM
[31]
  TGI: 4.06 µM
[32]
  TGI: 5.99 µM
[33]
  TGI: 3.12 µM
[34]
  TGI: 4.3 µM
[35]
  TGI: 5.23 µM
[36]
  TGI: 8.94 µM
[37]
  TGI: 4.67 µM
[38]
  TGI: 18.9 µM
[39]
  TGI: 3.92 µM
[40]
  TGI: 5.11 µM
[41]
  TGI: 9.67 µM
[42]
  TGI: 4.4 µM
[43]
  TGI: 9.36 µM
[44]
  TGI: 10.8 µM
[45]
  TGI: 8.47 µM
[46]
  TGI: 5.32 µM
[47]
  TGI: 4.45 µM
[48]
  TGI: 12.1 µM
[49]
  TGI: 7.03 µM
[50]
  TGI: 8.26 µM
[51]
  TGI: 6.17 µM
[52]
  TGI: 5.31 µM
[53]
  TGI: 6.58 µM
[54]
  TGI: 4.91 µM
[55]
  TGI: 16.8 µM
[56]
  TGI: 10.3 µM
[57]
  TGI: 13.2 µM
[58]
  TGI: 7.44 µM

## CCc1ccc(Cc2ccc(CC)c(NC(=O)C(=O)Cc3nc4ccccc4nc3C)c2CC)c(CC)c1NC(=O)C(=O)Cc1nc2ccccc2nc1C
[1]
  TGI: > 100 µM
[2]
  TGI: > 100 µM
[3]
  TGI: > 100 µM
[4]
  TGI: > 100 µM
[5]
  TGI: > 100 µM
[6]
  TGI: > 100 µM
[7]
  TGI: > 100 µM
[8]
  TGI: > 100 µM
[9]
  TGI: > 100 µM
[11]
  TGI: > 100 µM
[12]
  TGI: > 100 µM
[13]
  TGI: > 100 µM
[14]
  TGI: > 100 µM
[15]
  TGI: > 100 µM
[17]
  TGI: > 100 µM
[18]
  TGI: 43 µM
[20]
  TGI: > 100 µM
[21]
  TGI: > 100 µM
[22]
  TGI: > 100 µM
[23]
  TGI: > 100 µM
[24]
  TGI: > 100 µM
[25]
  TGI: > 100 µM
[26]
  TGI: > 100 µM
[27]
  TGI: > 100 µM
[28]
  TGI: > 100 µM
[29]
  TGI: > 100 µM
[31]
  TGI: > 100 µM
[32]
  TGI: > 100 µM
[33]
  TGI: > 100 µM
[34]
  TGI: > 100 µM
[35]
  TGI: > 100 µM
[36]
  TGI: > 100 µM
[37]
  TGI: > 100 µM
[38]
  TGI: > 100 µM
[39]
  TGI: > 100 µM
[59]
  TGI: > 100 µM
[40]
  TGI: > 100 µM
[42]
  TGI: > 100 µM
[43]
  TGI: > 100 µM
[44]
  TGI: > 100 µM
[45]
  TGI: > 100 µM
[46]
  TGI: > 100 µM
[48]
  TGI: > 100 µM
[49]
  TGI: 44.4 µM
[50]
  TGI: > 100 µM
[52]
  TGI: > 100 µM
[53]
  TGI: > 100 µM
[54]
  TGI: > 100 µM
[55]
  TGI: > 100 µM
[56]
  TGI: > 100 µM
[57]
  TGI: 72.8 µM
